Data: the NIST ThermoML archive (doi:10.1021/acs.jced.5b00813)

Legend:
[1] = refractive index (Na D-line) (dimensionless); details: 298.15 K; 101.33 kPa; Liquid; Standard Abbe refractometry
[2] = 298.15 K; 100 kPa; Liquid; Vibrating tube method
[3] = xn = mol fraction of the nth substance listed; details: 298.15 K, 100 kPa, Liquid, Vibrating tube method
[4] = excess molar enthalpy (molar enthalpy of mixing); xn = mol fraction of the nth substance listed; details: 298.15 K, 100 kPa, Liquid, Calvet calorimetry

CC(C)CC(C)(C)C [2,2,4-trimethylpentane]
Details | mass density [kg/m3] | refractive index
[1] | – | 1.389
[2] | 687.75 | –

CC(C)CC(C)(C)C [2,2,4-trimethylpentane] + CCCC(=O)OC
Details | mass density [kg/m3]
[3], x1 = 1 | 687.75

CC(C)CC(C)(C)C [2,2,4-trimethylpentane] + CCCCC(=O)OC
Details | mass density [kg/m3]
[3], x1 = 1 | 687.75

CC(C)CC(C)(C)C [2,2,4-trimethylpentane] + COC(C)=O
Details | mass density [kg/m3]
[3], x1 = 1 | 687.75

CCCC(=O)OC [methyl butanoate]
Details | mass density [kg/m3] | refractive index
[1] | – | 1.3845
[2] | 892.34 | –

CCCC(=O)OC [methyl butanoate] + CC(C)CC(C)(C)C
Details | excess molar enthalpy [kJ/mol] | mass density [kg/m3]
[3], x2 = 0 | – | 892.34
[3], x2 = 0.0344 | – | 881.71
[3], x2 = 0.0633 | – | 873.2
[3], x2 = 0.1096 | – | 860.1
[3], x2 = 0.1334 | – | 853.55
[3], x2 = 0.1539 | – | 848
[3], x2 = 0.2013 | – | 835.7
[3], x2 = 0.2471 | – | 824.1
[3], x2 = 0.2981 | – | 811.9
[3], x2 = 0.3973 | – | 789.58
[3], x2 = 0.441 | – | 780.3
[3], x2 = 0.5431 | – | 760
[3], x2 = 0.5901 | – | 751.22
[3], x2 = 0.6801 | – | 735.3
[3], x2 = 0.7243 | – | 727.9
[3], x2 = 0.8239 | – | 712.2
[3], x2 = 0.8708 | – | 705.2
[3], x2 = 0.8863 | – | 703.02
[3], x2 = 0.9158 | – | 698.8
[3], x2 = 0.9816 | – | 689.84
[4], x2 = 0.0389 | 0.161 | –
[4], x2 = 0.0858 | 0.332 | –
[4], x2 = 0.1367 | 0.499 | –
[4], x2 = 0.1916 | 0.651 | –
[4], x2 = 0.2446 | 0.779 | –
[4], x2 = 0.2982 | 0.884 | –
[4], x2 = 0.3481 | 0.962 | –
[4], x2 = 0.3959 | 1.02 | –
[4], x2 = 0.4256 | 1.05 | –
[4], x2 = 0.4407 | 1.05 | –
[4], x2 = 0.4767 | 1.06 | –
[4], x2 = 0.5375 | 1.06 | –
[4], x2 = 0.6052 | 1.03 | –
[4], x2 = 0.6813 | 0.941 | –
[4], x2 = 0.7629 | 0.789 | –
[4], x2 = 0.8494 | 0.566 | –
[4], x2 = 0.9353 | 0.302 | –

CCCC(=O)OC [methyl butanoate] + CCCCCCCC
Details | excess molar enthalpy [kJ/mol] | mass density [kg/m3]
[3], x2 = 0 | – | 892.34
[3], x2 = 0.059 | – | 875.04
[3], x2 = 0.1109 | – | 860.65
[3], x2 = 0.152 | – | 849.82
[3], x2 = 0.2051 | – | 836.56
[3], x2 = 0.2557 | – | 824.52
[3], x2 = 0.2992 | – | 814.89
[3], x2 = 0.3501 | – | 803.53
[3], x2 = 0.4045 | – | 792.24
[3], x2 = 0.4516 | – | 782.9
[3], x2 = 0.4978 | – | 774.12
[3], x2 = 0.5469 | – | 765.18
[3], x2 = 0.5862 | – | 758.27
[3], x2 = 0.6551 | – | 746.75
[3], x2 = 0.6989 | – | 739.74
[3], x2 = 0.7471 | – | 732.42
[3], x2 = 0.7931 | – | 725.7
[3], x2 = 0.8428 | – | 718.65
[3], x2 = 0.9009 | – | 710.74
[3], x2 = 0.9367 | – | 706.37
[3], x2 = 0.9651 | – | 702.84
[3], x2 = 0.9655 | – | 702.79
[4], x2 = 0.0438 | 0.213 | –
[4], x2 = 0.0922 | 0.413 | –
[4], x2 = 0.144 | 0.602 | –
[4], x2 = 0.1978 | 0.771 | –
[4], x2 = 0.2521 | 0.911 | –
[4], x2 = 0.3043 | 1.02 | –
[4], x2 = 0.3543 | 1.1 | –
[4], x2 = 0.403 | 1.16 | –
[4], x2 = 0.4321 | 1.2 | –
[4], x2 = 0.4779 | 1.22 | –
[4], x2 = 0.5368 | 1.21 | –
[4], x2 = 0.6033 | 1.16 | –
[4], x2 = 0.676 | 1.05 | –
[4], x2 = 0.757 | 0.88 | –
[4], x2 = 0.8413 | 0.64 | –
[4], x2 = 0.9231 | 0.362 | –

CCCC(=O)OC [methyl butanoate] + COC(C)=O
Details | excess molar enthalpy, [4] [kJ/mol] | mass density, [3] [kg/m3]
x1 = 0.0106 | – | 926.21
x1 = 0.027 | 0.022 | –
x1 = 0.0564 | – | 923.86
x1 = 0.0962 | 0.053 | –
x1 = 0.1023 | – | 921.52
x1 = 0.1361 | – | 919.91
x1 = 0.1645 | 0.083 | –
x1 = 0.203 | – | 916.91
x1 = 0.226 | 0.102 | –
x1 = 0.2536 | – | 914.74
x1 = 0.2888 | 0.12 | –
x1 = 0.3054 | – | 912.64
x1 = 0.3478 | 0.135 | –
x1 = 0.4002 | 0.143 | –
x1 = 0.4122 | – | 908.65
x1 = 0.4437 | 0.149 | –
x1 = 0.4511 | – | 907.3
x1 = 0.4822 | 0.151 | –
x1 = 0.5276 | 0.149 | –
x1 = 0.5456 | – | 904.19
x1 = 0.5725 | 0.146 | –
x1 = 0.5906 | – | 902.8
x1 = 0.6148 | – | 902.08
x1 = 0.6268 | 0.138 | –
x1 = 0.6958 | 0.122 | 899.76
x1 = 0.7394 | – | 898.57
x1 = 0.7669 | 0.1 | –
x1 = 0.7873 | – | 897.29
x1 = 0.8368 | – | 896.07
x1 = 0.8497 | 0.069 | –
x1 = 0.8884 | – | 894.85
x1 = 0.9313 | 0.036 | –
x1 = 0.9538 | – | 893.32
x1 = 0.974 | – | 892.87
x1 = 1 | – | 892.34

COC(C)=O [methyl ethanoate]
Details | mass density [kg/m3] | refractive index
[1] | – | 1.3588
[2] | 927.16 | –

COC(C)=O [methyl ethanoate] + CC(C)CC(C)(C)C
Details | excess molar enthalpy [kJ/mol] | mass density [kg/m3]
[3], x2 = 0 | – | 927.16
[3], x2 = 0.0375 | – | 906.89
[3], x2 = 0.1025 | – | 876.58
[3], x2 = 0.1652 | – | 851.09
[3], x2 = 0.1775 | – | 846.59
[3], x2 = 0.2189 | – | 832.07
[3], x2 = 0.2615 | – | 818.03
[3], x2 = 0.302 | – | 805.95
[3], x2 = 0.3902 | – | 782.41
[3], x2 = 0.4061 | – | 778.52
[3], x2 = 0.4249 | – | 774.09
[3], x2 = 0.4627 | – | 765.54
[3], x2 = 0.5239 | – | 752.92
[3], x2 = 0.5411 | – | 749.57
[3], x2 = 0.61 | – | 737.18
[3], x2 = 0.6612 | – | 728.76
[3], x2 = 0.6786 | – | 726.1
[3], x2 = 0.7359 | – | 717.6
[3], x2 = 0.8086 | – | 708.07
[3], x2 = 0.8803 | – | 699.86
[3], x2 = 0.9521 | – | 692.07
[4], x2 = 0.02 | 0.155 | –
[4], x2 = 0.0525 | 0.414 | –
[4], x2 = 0.0892 | 0.66 | –
[4], x2 = 0.1241 | 0.858 | –
[4], x2 = 0.1687 | 1.05 | –
[4], x2 = 0.2084 | 1.22 | –
[4], x2 = 0.256 | 1.39 | –
[4], x2 = 0.3079 | 1.54 | –
[4], x2 = 0.3608 | 1.66 | –
[4], x2 = 0.3915 | 1.71 | –
[4], x2 = 0.4323 | 1.76 | –
[4], x2 = 0.4764 | 1.79 | –
[4], x2 = 0.5406 | 1.76 | –
[4], x2 = 0.6163 | 1.64 | –
[4], x2 = 0.6888 | 1.46 | –
[4], x2 = 0.7833 | 1.15 | –
[4], x2 = 0.8597 | 0.792 | –
[4], x2 = 0.9422 | 0.356 | –
